The structures appear in SMILES notation.

Results on 32 compounds are retold here after patent publication US20090069319A1, “IMIDAZOPYRIDINE ANALOGS AND THEIR USE AS AGONISTS OF THE WNT-BETA-CATENIN CELLULAR MESSAGING SYSTEM” (Wyeth, priority 2007, published 2009).

A short description of the assay: Functional Dkk1-LRP5-TCF-Luciferase Assay in U2OS Cells (table columns: A=MAX FOLD Induction/DMSO CONTROL; B=fold induction @ 2.0 uM; C=fold induction @ 20.0 uM). The following applies: Homo sapiens, U2OS; for fold induction at 2 µM: 2.0 uM compound; for fold induction at 20 µM: 20.0 uM compound. Format: cell-based, Human. The procedure:
Biological Evaluation—Functional Dkk1-LRP5-TCF-Luciferase Assay in U2OS Cells
U2OS Human Bone derived cells (Osteosarcoma) are grown in McCoy's 5A Medium (Modified), with L-glutamine (GIBCO Cat No. 16600-082)+1% Pen-Strep+5% FBS) plated at 1×10^7 cells/T175 cm flask. The next day, the cells are co-transfected overnight with the following plasmids: (a) Test reporter (16×TCF-TK-FireFly-Luci), (b) Internal Control Reporter (TK-Renilla-Luci), (c) Wnt3a and (d) Dkk1. GIBCO's Lipofectamine 2000 and OptiMEM were used for the transfection. After a minimum of 4 hr of transfection at 37° C., the plasmid-transfected cells are trypsinized, counted, and suspended in freezing medium (95% FBS+5% DMSO). The reporter cells are frozen at 1×10^7/ml concentrations, aliquoted into 0.5 ml or 2.5 ml/tube and stored at −70° C.
The following day, test compounds are added under HTS setup by Plate Track into 384 well plates (white, TC treated, Falcon plate) such that the final concentration of the compounds in 20 μL/well cell will be 5 μg/ml (final concentration of DMSO=0.25% and final compound concentration=20 μM). Vials of frozen reporter cells are thawed by warming the vial in a 37° C. water bath for 60-120 seconds with some shaking until the cells formed a suspension. The thawed cells are transferred into a cold 50 ml (or larger) tube and mixed well by gentle pipetting. The appropriate amount of cold Phenol Red Free RPMI medium-1640 (GIBCO, Cat # 11835-030) with L-glutamine is added, both with ˜5% FBS (GIBCO-BRL, Cat. # 16000-044), so that 20 μl of the final cell suspension will contain ˜5,000 cells. The cell dilution is done such that the final concentration of FBS was ˜5%. Diluted cells (20 μl) are added into each well in a 384 well plate. The plate is incubated at 37° C. under 5% CO2 for ˜20 h. Bright-Glo substrate, 2.5 μl/well is added, and the Fire Fly Luciferase is measured using VLUX (60 second exposure) immediately after the substrate was added. Test compounds are dissolved in DMSO (100%) and added to specified wells. Raw luciferase signal data obtained as relative luminescence units (RLUs) for the test compounds are normalized to the signal of the mean of the sample reporter cell plate with DMSO.
Active compounds have TCF-luciferase ratios of 2.5 fold or greater over DMSO. All compounds show a signal increase of at least 10% compared to a signal with only DMSO added.
A=MAX FOLD Induction/DMSO CONTROL
B=TCF ACTIVITY/DMSO CONTROL Fold induction @ 2.0 uM C=TCF ACTIVITY/DMSO CONTROL Fold induction @ 20.0 uM

As to `O=[N+]([O-])c1cc(-c2nc3c(-c4ccc5ccccc5c4)ccnc3n2C2CCNCC2)ccc1N1CCOCC1` [2-(4-morpholin-4-yl-3-nitrophenyl)-7-(2-naphthyl)-3-piperidin-4-yl-3H-imidazo[4,5-b]pyridine], the fold induction at 2 µM came out at 1.44 and the fold induction at 20 µM worked out at 0.06.

`CC(C)(C)c1ccc(-c2nc3cc(-c4ccc5ccccc5c4)cnc3n2C2CCNCC2)cc1` [2-(4-tert-butylphenyl)-6-(2-naphthyl)-3-piperidin-4-yl-3H-imidazo[4,5-b]pyridine]: the fold induction at 2 µM was determined as 1.13.

Regarding `CC(C)(C)c1ccc(-c2nc3c(-c4ccc5ccccc5c4)ccnc3n2C2CCNCC2)cc1` [2-(4-tert-butylphenyl)-7-(2-naphthyl)-3-piperidin-4-yl-3H-imidazo[4,5-b]pyridine], the fold induction at 2 µM is 1.88.

With `COc1ccc2[nH]cc(-c3nc4c(-c5ccc6ccccc6c5)ccnc4n3C3CCNCC3)c2c1` [2-(5-methoxy-1H-indol-3-yl)-7-(2-naphthyl)-3-piperidin-4-yl-3H-imidazo[4,5-b]pyridine], the fold induction at 2 µM worked out at 1.2.

As to `Cc1ccc2[nH]cc(-c3nc4c(-c5ccc6ccccc6c5)ccnc4n3C3CCNCC3)c2c1` [2-(5-methyl-1H-indol-3-yl)-7-(2-naphthyl)-3-piperidin-4-yl-3H-imidazo[4,5-b]pyridine], the fold induction at 2 µM amounted to 1.92.

With `Cc1ccc(-c2nc3cc(-c4ccc5ccccc5c4)cnc3n2C2CCNCC2)o1` [2-(5-methyl-2-furyl)-6-(2-naphthyl)-3-piperidin-4-yl-3H-imidazo[4,5-b]pyridine], the fold induction at 2 µM is 1.23.

Take `Cc1ccc(-c2nc3c(-c4ccc5ccccc5c4)ccnc3n2C2CCNCC2)o1` [2-(5-methyl-2-furyl)-7-(2-naphthyl)-3-piperidin-4-yl-3H-imidazo[4,5-b]pyridine]: the fold induction at 2 µM turned out to be 1.17.

With `FC(F)(F)c1ccc(C(F)(F)F)c(-c2nc3c(-c4ccc5ccccc5c4)ccnc3n2C2CCNCC2)c1` [2-[2,5-bis(trifluoromethyl)phenyl]-7-(2-naphthyl)-3-piperidin-4-yl-3H-imidazo[4,5-b]pyridine], the fold induction at 2 µM stood at 1.45.

On to `FC(F)(F)c1cccc(-c2nc3c(-c4ccc5ccccc5c4)ccnc3n2C2CCNCC2)c1Cl` [2-[2-chloro-3-(trifluoromethyl)phenyl]-7-(2-naphthyl)-3-piperidin-4-yl-3H-imidazo[4,5-b]pyridine], for which the fold induction at 2 µM was found to be 1.21.

As to `Fc1ccc(-c2nc3c(-c4ccc5ccccc5c4)ccnc3n2C2CCNCC2)c(C(F)(F)F)c1` [2-[4-fluoro-2-(trifluoromethyl)phenyl]-7-(2-naphthyl)-3-piperidin-4-yl-3H-imidazo[4,5-b]pyridine], the fold induction at 2 µM was 1.11.

Turning to `Oc1ccccc1-c1nc2c(-c3ccc4ccccc4c3)ccnc2n1C1CCNCC1` [2-[7-(2-naphthyl)-3-piperidin-4-yl-3H-imidazo[4,5-b]pyridin-2-yl]phenol], the fold induction at 2 µM is 1.35 and the fold induction at 20 µM is 0.01.

In the case of `c1ccc2cc(-c3ccnc4c3nc(-c3ccc5ccccc5n3)n4C3CCNCC3)ccc2c1` [2-[7-(2-naphthyl)-3-piperidin-4-yl-3H-imidazo[4,5-b]pyridin-2-yl]quinoline], the fold induction at 2 µM worked out at 0.01 and the fold induction at 20 µM is 1.01.

Take `CCCCc1nc2cc(-c3ccc4ccccc4c3)cnc2n1C1CCNCC1` [2-butyl-6-(2-naphthyl)-3-piperidin-4-yl-3H-imidazo[4,5-b]pyridine]: the fold induction at 2 µM worked out at 1.21.

Consider `CCCCc1nc2c(-c3ccc4ccccc4c3)ccnc2n1C1CCNCC1` [2-butyl-7-(2-naphthyl)-3-piperidin-4-yl-3H-imidazo[4,5-b]pyridine], for which the fold induction at 2 µM worked out at 1.19.

In the case of `Clc1nc2ccccc2cc1-c1nc2c(-c3ccc4ccccc4c3)ccnc2n1C1CCNCC1` [2-chloro-3-[7-(2-naphthyl)-3-piperidin-4-yl-3H-imidazo[4,5-b]pyridin-2-yl]quinoline], the fold induction at 2 µM is 1.6.

With `c1ccc2cc(-c3cnc4c(c3)nc(C3CCCCC3)n4C3CCNCC3)ccc2c1` [2-cyclohexyl-6-(2-naphthyl)-3-piperidin-4-yl-3H-imidazo[4,5-b]pyridine], the fold induction at 2 µM is 1.24 and the fold induction at 20 µM is 0.01.

For `c1ccc2cc(-c3ccnc4c3nc(C3CCCCC3)n4C3CCNCC3)ccc2c1` [2-cyclohexyl-7-(2-naphthyl)-3-piperidin-4-yl-3H-imidazo[4,5-b]pyridine], the fold induction at 2 µM worked out at 1.88.

Turning to `c1ccc2cc(-c3ccnc4c3nc(C3CCCC3)n4C3CCNCC3)ccc2c1` [2-cyclopentyl-7-(2-naphthyl)-3-piperidin-4-yl-3H-imidazo[4,5-b]pyridine], the fold induction at 2 µM is 1.46.

On to `CCc1nc2cc(-c3ccc4ccccc4c3)cnc2n1C1CCNCC1` [2-ethyl-6-(2-naphthyl)-3-piperidin-4-yl-3H-imidazo[4,5-b]pyridine], for which the fold induction at 2 µM amounted to 1.27 and the fold induction at 20 µM came to 0.78.

Turning to `CCc1nc2c(-c3ccc4ccccc4c3)ccnc2n1C1CCNCC1` [2-ethyl-7-(2-naphthyl)-3-piperidin-4-yl-3H-imidazo[4,5-b]pyridine], the fold induction at 2 µM is 1.39.

As for `CC(C)Cc1nc2cc(-c3ccc4ccccc4c3)cnc2n1C1CCNCC1` [2-isobutyl-6-(2-naphthyl)-3-piperidin-4-yl-3H-imidazo[4,5-b]pyridine], the fold induction at 2 µM was found to be 1.13.

In the case of `CC(C)Cc1nc2c(-c3ccc4ccccc4c3)ccnc2n1C1CCNCC1` [2-isobutyl-7-(2-naphthyl)-3-piperidin-4-yl-3H-imidazo[4,5-b]pyridine], the fold induction at 2 µM is 1.05.

For the compound `CC(C)c1nc2cc(-c3ccc4ccccc4c3)cnc2n1C1CCNCC1` [2-isopropyl-6-(2-naphthyl)-3-piperidin-4-yl-3H-imidazo[4,5-b]pyridine], the fold induction at 2 µM came to 1.44.

On to `COc1cc(-c2nc3c(-c4ccc5ccccc5c4)ccnc3n2C2CCNCC2)ccc1O` [2-methoxy-4-[7-(2-naphthyl)-3-piperidin-4-yl-3H-imidazo[4,5-b]pyridin-2-yl]phenol], for which the fold induction at 2 µM was determined as 1.63 and the fold induction at 20 µM was 0.01.

Take `Cc1ccc(CCn2c(C)nc3c(-c4ccc5ccccc5c4)ccnc32)cc1` [2-methyl-3-[2-(4-methylphenyl)ethyl]-7-(2-naphthyl)-3H-imidazo[4,5-b]pyridine]: the fold induction at 2 µM came out at 0.82 and the fold induction at 20 µM turned out to be 1.

As for `Cc1nc2cc(-c3ccc4ccccc4c3)cnc2n1C1CCNCC1` [2-methyl-6-(2-naphthyl)-3-piperidin-4-yl-3H-imidazo[4,5-b]pyridine], the fold induction at 2 µM is 1.06 and the fold induction at 20 µM turned out to be 1.17.

`Cc1nc2c(-c3ccc4ccccc4c3)ccnc2n1CC1CCNCC1` [2-methyl-7-(2-naphthyl)-3-(piperidin-4-ylmethyl)-3H-imidazo[4,5-b]pyridine]: the fold induction at 2 µM was found to be 1.12 and the fold induction at 20 µM was 0.08.

On to `Cc1nc2c(-c3ccc4ccccc4c3)ccnc2n1[C@@H]1CCNC1` [2-methyl-7-(2-naphthyl)-3-[(3R)-pyrrolidin-3-yl]-3H-imidazo[4,5-b]pyridine], for which the fold induction at 2 µM came out at 1.44 and the fold induction at 20 µM was 0.55.

`Cc1nc2c(-c3ccc4ccccc4c3)ccnc2n1[C@H]1CCNC1` [2-methyl-7-(2-naphthyl)-3-[(3S)-pyrrolidin-3-yl]-3H-imidazo[4,5-b]pyridine]: the fold induction at 2 µM is 1.57 and the fold induction at 20 µM was 0.4.

Consider `CC(=O)N1CCC(n2c(=O)n(C)c3c(-c4ccc5ccccc5c4)ccnc32)CC1` [3-(1-acetylpiperidin-4-yl)-1-methyl-7-(2-naphthyl)-1,3-dihydro-2H-imidazo[4,5-b]pyridin-2-one], for which the fold induction at 2 µM is 1.09 and the fold induction at 20 µM turned out to be 0.51.

In the case of `c1ccc(CN2CCC(n3cnc4c(-c5ccc6ccccc6c5)ccnc43)CC2)cc1` [3-(1-benzylpiperidin-4-yl)-7-(2-naphthyl)-3H-imidazo[4,5-b]pyridine], the fold induction at 2 µM stood at 0.84 and the fold induction at 20 µM was 0.08.

With `O=C(N1CCOCC1)N1CCC(n2c(=O)[nH]c3c(-c4ccc5ccccc5c4)ccnc32)CC1` [3-[1-(morpholin-4-ylcarbonyl)piperidin-4-yl]-7-(2-naphthyl)-1,3-dihydro-2H-imidazo[4,5-b]pyridin-2-one], the fold induction at 2 µM was 1.33 and the fold induction at 20 µM amounted to 1.02.

A word on the fold induction: it is the ratio of treated to control signal.
